Columns and labels:
[1] = target: T1, recombinant human Meningioma Expressed Antigen 5 (MGEA5), also referred to as O-GlcNAcase (OGA) (Homo sapiens, UniProt O60502); assay: OGA biochemical assay (inhibition of FM-GlcNAc hydrolysis, fluorescence); settings: FM-GlcNAc substrate; for IC50: 6 h at room temperature, read-out: Enzymatic hOGA, pIC50 (converted); for Emax: maximal effect, read-out: Enzymatic Emax (%)
T1 construct: Full length OGA enzyme was purchased at OriGene (cat #TP322411); purchased OriGene TP322411
T1 sequence (O60502 1-916): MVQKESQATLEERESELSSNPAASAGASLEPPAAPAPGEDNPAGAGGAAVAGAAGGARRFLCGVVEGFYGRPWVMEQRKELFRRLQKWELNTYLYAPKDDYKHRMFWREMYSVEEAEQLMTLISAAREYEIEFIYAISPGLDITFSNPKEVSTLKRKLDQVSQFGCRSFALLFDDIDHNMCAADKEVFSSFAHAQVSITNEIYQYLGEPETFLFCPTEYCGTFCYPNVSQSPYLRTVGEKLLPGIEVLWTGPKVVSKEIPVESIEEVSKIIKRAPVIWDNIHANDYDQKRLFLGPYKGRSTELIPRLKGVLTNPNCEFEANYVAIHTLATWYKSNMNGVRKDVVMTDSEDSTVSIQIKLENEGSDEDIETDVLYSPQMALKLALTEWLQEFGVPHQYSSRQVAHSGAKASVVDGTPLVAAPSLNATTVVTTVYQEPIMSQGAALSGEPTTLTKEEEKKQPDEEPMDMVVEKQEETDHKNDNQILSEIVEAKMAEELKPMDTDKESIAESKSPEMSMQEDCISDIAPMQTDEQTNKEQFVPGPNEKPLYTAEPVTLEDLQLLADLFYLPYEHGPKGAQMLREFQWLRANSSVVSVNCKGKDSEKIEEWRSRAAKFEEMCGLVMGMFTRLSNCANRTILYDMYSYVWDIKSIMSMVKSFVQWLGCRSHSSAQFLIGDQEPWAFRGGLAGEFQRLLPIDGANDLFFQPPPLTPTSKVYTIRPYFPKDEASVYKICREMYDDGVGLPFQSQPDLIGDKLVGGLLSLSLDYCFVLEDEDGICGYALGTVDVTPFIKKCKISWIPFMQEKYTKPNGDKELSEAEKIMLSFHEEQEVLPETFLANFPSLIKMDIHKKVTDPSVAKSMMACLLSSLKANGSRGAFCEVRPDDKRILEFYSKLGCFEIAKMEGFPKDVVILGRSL
Outline: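 Full-length OGA (2 nM) pre-incubated 60 min at room temperature with compound, then FM-GlcNAc (100 uM final) hydrolysed 6 h at room temperature in 200 mM citrate/phosphate pH 7.2 with 0.005% Tween-20. Stopped with carbonate pH 11.0; fluorescein read at ex 485/em 538 nm. IC50 and Hill coefficient from curve fit between no-inhibitor and saturating-standard controls.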

OGA = target: T2, OGA (Homo sapiens, UniProt O60502); assay: OGA cellular assay (ICC detection of O-GlcNAcylated proteins in HEK293 cells inducible for P301L mutant human Tau); assay type: cell-based; settings: for Emax: HEK293, HEK293 cells inducible for P301L mutant human Tau, maximum = Thiamet G 200 uM; for EC50: HEK293 cells inducible for P301L mutant human Tau, 6 hours incubation, read-out: Cellular hOGA, pEC50 (converted)
T2 construct: HEK293 cells inducible for P301L mutant human Tau (isoform 2N4R) were established at Janssen; endogenous in cells; host or cells: HEK293 cells inducible for P301L mutant human Tau (2N4R)
T2 sequence (O60502 1-916): T1 sequence (O60502 1-916)
Outline: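 HEK293 cells inducible for P301L Tau (2N4R), seeded in low-glucose medium, treated with compound for 6 h at 0.2% DMSO. O-GlcNAc immunostained with CTD110.6 after PFA fixation; 488 nm intensity imaged, Hoechst nuclei counted for toxicity. IC50 by non-linear regression, 200 uM Thiamet G as maximum.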

IC50 [1] [nM] | Emax [1] [%] | melting point [°C] | Emax (OGA) [%] | EC50 (OGA) [nM] | SMILES
1580 | 89 | 180.52 | – | – | Cc1cc(C[C@H]2CCCN(C(C)c3cnc4[nH]c(C)nc4c3)C2)cc(C)n1 (single isomer, unassigned) [Compound 6a]
7.94 | 101 | – | 84 | 12.6 | Cc1cc(NC[C@H]2CCCN(C(C)c3ccc4sc(C)nc4n3)C2)nc(C)n1 (some centres unmarked) [Compound 108]
6.31 | 100 | – | 89 | 10 | COc1cc(NC[C@H]2CCCN(C(C)c3ccc4sc(C)nc4n3)C2)cc(C)n1 (some centres unmarked) [Compound 109]

Reference: patent publication US20210115040A1, “OGA INHIBITOR COMPOUNDS” (Janssen Pharmaceutica NV, priority 2018, published 2021)
